The inhibition is the percentage by which the read-out fell short of the control. Low values mean a response near the control, high ones a response far below the control. The IC50 is the concentration that inhibits the measured activity by half. Read a low IC50 as greater potency in that assay.

Experimental findings from patent US10544106B2, “Certain chemical entities, compositions, and methods” (NeuPharma, Inc., priority 2016, dated 2020) are described below.

Assay [1] concerns the target BTK (Homo sapiens (Human), UniProt Q06187). The experiment in a line: Z'-LYTE kinase inhibition assay against BTK. In kind it is biochemical. To be noted: for inhibition at 0.1 µM: compound at 100 nM, ATP concentration at Km; for IC50: series of concentrations, GraphPad Prism 5. Summed up: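 Compounds were titrated over 10 points (3-fold steps, 1% DMSO) against BTK (1.04-10.4 ng) using Tyr 01 substrate at 2 μM and ATP at Km, pH 7.5 HEPES buffer with MgCl2 and EGTA. After one hour each of reaction and development at room temperature, fluorescence gave percent inhibition and IC50.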

The test system of assay [2] is OCI-Ly10 cells. The assay can be described thus: OCI-Ly10 cell proliferation assay (Alamar Blue, 72 hours). In kind it is cell-based. To be noted: Homo sapiens. The protocol: OCI-Ly10 cells were cultured in Iscove's DMEM supplemented with 20% fetal bovine serum and 1× penicillin/streptomycin/glutamine. The cells were maintained in T175 flasks under 5% CO2 in a 37 ° C. humidified incubator for 5 days prior to plating and assay.
Cells were pooled by centrifugation (200 ref, 8 minutes) and resuspended in fresh medium to a concentration of 2.00E+05 cells/ml. 200 µl of the cell suspension was added to each well (40,000 cells/well) of a black-walled 96 well plate to which 1 μl of compound (n=3 per concentration) in 100% DMSO (0.5% final concentration) was added per well. Vehicle and cell free wells were also included in the assay. The dosed cells were cultured under normal conditions for 72 hours.
Cell proliferation is measured using the dye Alamar Blue (resazurin). Resazurin is reduced to resorufin by cellular enzymes and is fluorescent (544 nm excitation, 612 nm emission). Fluorescence intensity is proportional to cell number. Resazurin was prepared in PBS to a stock concentration of 440 μM. 40 μl of the 440 μM resazurin stock solution was added 3 hours prior to the 72 hour termination of the assay. The plate was returned to normal culture conditions and fluorescence measurements were collected using a Cytation3 multimode plate reader (Biotek) at 72 hours.
The scale utilized in Table 8 is as follows: ++ less than 50 nM and + greater than 50 nM.

Sequence of BTK (Q06187 whole entry): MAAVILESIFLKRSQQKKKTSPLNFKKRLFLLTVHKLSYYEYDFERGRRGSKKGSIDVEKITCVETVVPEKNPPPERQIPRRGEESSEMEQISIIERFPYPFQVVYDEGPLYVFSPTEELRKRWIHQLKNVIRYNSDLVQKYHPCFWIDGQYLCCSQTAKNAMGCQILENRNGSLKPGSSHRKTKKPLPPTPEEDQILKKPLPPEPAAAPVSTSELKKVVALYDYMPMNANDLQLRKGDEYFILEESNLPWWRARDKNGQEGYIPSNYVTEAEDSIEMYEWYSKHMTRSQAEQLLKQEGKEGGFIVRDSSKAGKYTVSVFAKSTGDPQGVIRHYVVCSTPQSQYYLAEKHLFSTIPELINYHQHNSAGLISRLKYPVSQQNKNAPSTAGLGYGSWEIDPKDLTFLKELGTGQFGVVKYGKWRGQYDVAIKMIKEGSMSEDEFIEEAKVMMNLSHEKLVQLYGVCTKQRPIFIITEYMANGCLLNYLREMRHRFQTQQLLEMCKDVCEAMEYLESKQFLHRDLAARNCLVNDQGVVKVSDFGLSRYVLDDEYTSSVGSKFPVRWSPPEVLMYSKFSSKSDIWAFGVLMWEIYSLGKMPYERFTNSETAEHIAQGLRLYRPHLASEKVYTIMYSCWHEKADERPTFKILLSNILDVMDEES

In assay [1], `C=CC(=O)Nc1cccc(-c2cc(-c3ccc(C(=O)Nc4cc(C5CC5)ccn4)c(F)c3)cc3cncnc23)c1` [C139, 4-(8-(3-acrylamidophenyl)quinazolin-6-yl)-N-(4-cyclopropylpyridin-2-yl)-2-fluorobenzamide] came in with an inhibition at 0.1 µM above 50% and an IC50 below 0.1 µM. In assay [2], this molecule came in with a half-inhibitory concentration (IC50) below 0.05 µM.
The matching figures for `C=CC(=O)Nc1cccc(-c2cc(-c3ccc(C(=O)Nc4ccccn4)c(Cl)c3)cc3cncnc23)c1` [C163, 4-(8-(3-acrylamidophenyl)quinazolin-6-yl)-2-chloro-N-(pyridin-2-yl)benzamide]: above 50%, below 0.1 µM and above 0.05 µM.
For `C=CC(=O)Nc1cccc(-c2cc(-c3ccc(Oc4cc(C5CC5)ccn4)cc3)cc3cncnc23)c1` [C183, N-(3-(6-(4-((4-cyclopropylpyridin-2-yl)oxy)phenyl)quinazolin-8-yl)phenyl)acrylamide] the same measures were above 50%, below 0.1 µM and below 0.05 µM.
In assay [1], `C=CC(=O)Nc1cccc(-c2cc(-c3ccc(Oc4cc(C#N)ccn4)cc3)cc3cncnc23)c1` [C184, N-(3-(6-(4-((4-cyanopyridin-2-yl)oxy)phenyl)quinazolin-8-yl)phenyl)acrylamide] had an inhibition at 0.1 µM above 50% and an IC50 below 0.1 µM. Also, in assay [2], the IC50 is below 0.05 µM.
The matching figures for `C=CC(=O)N1CCC(c2nc(-c3ccc(C(=O)Nc4ccccn4)cc3)n3c(N)nccc23)C1` (stereo not shown) [C185, 4-(1-(1-acryloylpyrrolidin-3-yl)-5-amino-imidazo[1,5-c]pyrimidin-3-yl)-N-(pyridin-2-yl)benzamide]: above 50%, below 0.1 µM and below 0.05 µM.
The matching figures for `C=CC(=O)N1CCC(c2nc(-c3ccc(Oc4ccccn4)cc3)n3c(N)nccc23)C1` (stereo not shown) [C186, 1-(3-(5-amino-3-(4-(pyridin-2-yloxy)phenyl)imidazo[1,5-c]pyrimidin-1-yl)pyrrolidin-1-yl)prop-2-en-1-one]: above 50%, below 0.1 µM and below 0.05 µM.
The matching figures for `C=CC(=O)N1CCC(c2nc(-c3ccc(Oc4cc(C(F)(F)F)ccn4)cc3)n3c(N)nccc23)C1` (stereo not shown) [C196, 1-(3-(5-amino-3-(4-((4-(trifluoromethyl)pyridin-2-yl)oxy)phenyl)imidazo[1,5-c]pyrimidin-1-yl)pyrrolidin-1-yl)prop-2-en-1-one]: above 50%, below 0.1 µM and below 0.05 µM.
For `C=CC(=O)N1CCC(c2nc(-c3ccc(C(=O)Nc4ccccn4)cc3)n3c(N)ncnc23)C1` (stereo not shown) [C197, 4-(8-(1-acryloylpyrrolidin-3-yl)-4-amino-imidazo[1,5-a][1,3,5]triazin-6-yl)-N-(pyridin-2-yl)benzamide], in assay [1], the inhibition at 0.1 µM is above 50% and the IC50 is below 0.1 µM. Besides, the IC50 in assay [2] is below 0.05 µM.
The matching figures for `C=CC(=O)N1CCC(c2nc(-c3ccc(C(=O)Nc4cc(C5CC5)ccn4)cc3)n3c(N)ncnc23)C1` (stereo not shown) [C199, 4-(8-(1-acryloylpyrrolidin-3-yl)-4-amino-imidazo[1,5-a][1,3,5]triazin-6-yl)-N-(4-cyclopropylpyridin-2-yl)benzamide]: above 50%, below 0.1 µM and below 0.05 µM.
The matching figures for `CC#CC(=O)N1CCC(c2nc(-c3ccc(C(=O)Nc4ccccn4)cc3)n3c(N)nccc23)C1` (stereo not shown) [C204, 4-(5-amino-1-(1-(but-2-ynoyl)pyrrolidin-3-yl)imidazo[1,5-c]pyrimidin-3-yl)-N-(pyridin-2-yl)benzamide]: above 50%, below 0.1 µM and below 0.05 µM.
For `C=CC(=O)N1CCC(c2nc(-c3ccc(Oc4cc(OC)ccn4)cc3)n3c(N)nccc23)C1` (stereo not shown) [C210, 1-(3-(5-amino-3-(4-((4-methoxypyridin-2-yl)oxy)phenyl)imidazo[1,5-c]pyrimidin-1-yl)pyrrolidin-1-yl)prop-2-en-1-one] the same measures were above 50%, below 0.1 µM and below 0.05 µM.
Consider `C=CC(=O)N1CCC(c2nc(-c3ccc(C(=O)Nc4ccccn4)c(F)c3)n3c(N)nccc23)C1` (stereo not shown) [C230, 4-(1-(1-acryloylpyrrolidin-3-yl)-5-amino-imidazo[1,5-c]pyrimidin-3-yl)-2-fluoro-N-(pyridin-2-yl)benzamide], for which the values for the IC50 in assay [1] and in assay [2] were below 0.1 µM and below 0.05 µM, respectively.
The matching figures for `C=CC(=O)N1CCCC(c2nc(-c3ccc(C(=O)Nc4ccccn4)cc3)n3c(N)nccc23)C1` (stereo not shown) [C235, 4-(1-(1-acryloylpiperidin-3-yl)-5-amino-imidazo[1,5-c]pyrimidin-3-yl)-N-(pyridin-2-yl)benzamide]: below 0.1 µM and below 0.05 µM.
The matching figures for `CC#CC(=O)N1CCCC(c2nc(-c3ccc(C(=O)Nc4ccccn4)cc3)n3c(N)nccc23)C1` (stereo not shown) [C236, 4-(5-amino-1-(1-(but-2-ynoyl)piperidin-3-yl)imidazo[1,5-c]pyrimidin-3-yl)-N-(pyridin-2-yl)benzamide]: below 0.1 µM and below 0.05 µM.
For `C=CC(=O)N1CCC(c2nc(-c3ccc(C(=O)Nc4cc(C5CC5)ccn4)cc3)n3c(N)nccc23)C1` (stereo not shown) [C238, 4-(1-(1-acryloylpyrrolidin-3-yl)-5-amino-imidazo[1,5-c]pyrimidin-3-yl)-N-(4-cyclopropylpyridin-2-yl)benzamide] the same measures were below 0.1 µM and below 0.05 µM.
In the case of `C=CC(=O)N1CCC(c2nc(-c3ccc(C(=O)Nc4cc(OC)ccn4)cc3)n3c(N)nccc23)C1` (stereo not shown) [C240, 4-(1-(1-acryloylpyrrolidin-3-yl)-5-amino-imidazo[1,5-c]pyrimidin-3-yl)-N-(4-methoxypyridin-2-yl)benzamide], the IC50 was below 0.1 µM in assay [1] and below 0.05 µM in assay [2].
